Several values for one entry are separate records, joined by “and”; a condition that tells them apart may be missing. Equal values may be shown once.
Key:
[1] = system: dextran sulfate sodium (DSS)-induced colitis in mice; experiment: mouse dextran sulfate sodium (DSS) model of acute ulcerative colitis; type: in vivo, mice (Swiss Webster); settings: for restoration of colon length (in words): DSS-induced colitis in mice, oral administration; on Colon Content Score (0-3): key: 0=normal, no blood observed; 1=semi-solid stool, may be slightly blood tinged; 2=semi-solid to fluid stool with definite evidence of blood; 3=bloody fluid or no content, (include animals with no observable distal content in this category)
[2] = viscosity (flow property) and taste assessment; type: physicochemical
Experimental: Properties of provided compounds and compositions can be readily tested, including using a number of methods widely known and practiced in the art, in accordance with the present disclosure. For example, viscosity and/or taste of provided compounds can be readily tested. In some embodiments, viscosity was assessed by testing whether a provided compound could readily flow out of a vial or be swirled. In some embodiments, viscosity was assessed by testing whether a provided compound could be administered by direct drinking by a subject. In some embodiments, viscosity can be measured quantitatively or qualitatively by methods and instruments as known and practiced in the art. In some embodiments, taste was assessed by testing whether a provided compound could be administered by direct drinking by a subject.

[3] = CsA (75 mg/kg PO QD) vs. Compound I-1 (2 g/kg PO BID)
[4] = Naïve vs. Compound I-1 (2 g/kg PO BID)
[5] = Vehicle vs. Compound I-1 (2 g/kg PO BID)
[6] = individual animals, necropsy day 7, 3% DSS, Compound I-1 2 g/kg PO, BID (d0-6)

Structure (SMILES) | Mean Diff., Tukey's multiple comparisons test (colon length, FIG. 2) [1, 3] | Significant? Tukey's multiple comparisons test (colon length, FIG. 2) [1, 3] | restoration of colon length (in words) [1] | restoration of colon length (in words) ([1]; listed as compound I-1) | Mean Diff., Tukey's multiple comparisons test (colon length, FIG. 2) [1, 4] | Significant? Tukey's multiple comparisons test (colon length, FIG. 2) [1, 4] | Mean Diff., Tukey's multiple comparisons test (colon length, FIG. 2) [1, 5] | Significant? Tukey's multiple comparisons test (colon length, FIG. 2) [1, 5] | Colon Content Score (0-3) [1, 6] | Colon Length [1, 6] | Colon Weight:Length [1, 6] | Colon Wet Wt [1, 6] | flow properties and taste for formulation [2] | viscosity compared with glycerol [2]
CCCC(=O)OCC(COC(=O)CCC(=O)OCC(COC(=O)CCC)OC(=O)CCC)OC(=O)CCC (stereo not drawn) [Compound I-1] | 0.65 | No | significantly restore colon length | effectively restored colon length | 1.85 | Yes | −1.05 | Yes | 1 (8×) and 2 (2×) | 8.00 cm (3×) and 8.25 cm and 6.25 cm (2×) and 8.50 cm and 7.00 cm (2×) and 6.75 cm | 0.046 g/cm and 0.039 g/cm and 0.043 g/cm and 0.063 g/cm and 0.042 g/cm and 0.054 g/cm and 0.034 g/cm and 0.047 g/cm and 0.056 g/cm and 0.048 g/cm | 0.369 g and 0.320 g and 0.343 g and 0.391 g and 0.332 g (2×) and 0.339 g and 0.291 g and 0.390 g and 0.324 g | surprisingly good flow properties and taste | lower viscosity than glycerol
CCCC(=O)OCC(COC(=O)CCC)OC(=O)CCC(=O)OC(COC(=O)CCC)COC(=O)CCC [Compound I-2] |  |  |  |  |  |  |  |  |  |  |  |  | surprisingly good flow properties and taste | 

— patent US20200369594A1, “COMPOUNDS COMPRISING SHORT-CHAIN FATTY ACID MOIETIES AND COMPOSITIONS AND METHODS THEREOF” (priority 2018, published 2020)
